The supplement of paper PMC10307832

What was measured:
Test in all cases: relative viability (nuclei count vs DMSO), 5 days (fraction); higher = more cells survive
DM3189 = compound: C1CN(CCN1)C2=CC=C(C=C2)C3=CN4C(=C(C=N4)C5=CC=NC6=CC=CC=C56)N=C3 [DM3189]
How it was run: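 Acceptance criteria were a control CV below 25% and at least one doubling per plate. Lung cancer cell lines in 1536-well plates got five library-drug doses (not always all listed) √10 apart by pinning and were left 5 days with no medium change. Viability divides treated-well nuclei by vehicle-well nuclei and is the median across plates. Nuclei were counted by MetaXpress from 4× Hoechst images.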

DM3189 + Crizotinib = compound: C1CN(CCN1)C2=CC=C(C=C2)C3=CN4C(=C(C=N4)C5=CC=NC6=CC=CC=C56)N=C3 [DM3189] + C[C@@H](Oc1cc(-c2cnn(C3CCNCC3)c2)cnc1N)c1c(Cl)ccc(F)c1Cl [Crizotinib] (partner 1 µM)
How it was run: (§1)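 Nuclei were stained with Hoechst during a one-step fixation (final 0.05% Triton X-100, 1% formaldehyde, 1 ug/ml Hoechst) carried out 5 days after dosing, then counted on 4× images. The cells, lung cancer lines in 1536-well plates, had been dosed by pin tool the day after seeding with one drug alone or a fixed anchor-drug dose plus five library-drug doses (not always all listed) in √10 steps. Relative viability is the nuclei count in treated wells divided by that in vehicle wells, and each value is the median of duplicate plates.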

DM3189 + Vorinostat = compound: C1CN(CCN1)C2=CC=C(C=C2)C3=CN4C(=C(C=N4)C5=CC=NC6=CC=CC=C56)N=C3 [DM3189] + O=C(CCCCCCC(=O)Nc1ccccc1)NO [Vorinostat] (partner 1 µM)
How it was run: as §1

DM3189 + Linsitinib = compound: C1CN(CCN1)C2=CC=C(C=C2)C3=CN4C(=C(C=N4)C5=CC=NC6=CC=CC=C56)N=C3 [DM3189] + C[C@]1(O)C[C@@H](c2nc(-c3ccc4ccc(-c5ccccc5)nc4c3)c3c(N)nccn32)C1 [Linsitinib] (partner 1 µM)
How it was run: as §1

DM3189 + Luminespib = compound: C1CN(CCN1)C2=CC=C(C=C2)C3=CN4C(=C(C=N4)C5=CC=NC6=CC=CC=C56)N=C3 [DM3189] + CCNC(=O)c1noc(-c2cc(C(C)C)c(O)cc2O)c1-c1ccc(CN2CCOCC2)cc1 [Luminespib] (partner 0.01 µM)
How it was run: as §1

| Cell Line | relative viability (DM3189; 0.08 µM) | relative viability (DM3189; 0.253 µM) | relative viability (DM3189; 0.8 µM) | relative viability (DM3189; 2.53 µM) | relative viability (DM3189 + Crizotinib; first compound 0.08 µM) | relative viability (DM3189 + Crizotinib; first compound 0.253 µM) | relative viability (DM3189 + Crizotinib; first compound 0.8 µM) | relative viability (DM3189 + Crizotinib; first compound 2.53 µM) | relative viability (DM3189 + Vorinostat; first compound 0.08 µM) | relative viability (DM3189 + Vorinostat; first compound 0.253 µM) | relative viability (DM3189 + Vorinostat; first compound 0.8 µM) | relative viability (DM3189 + Vorinostat; first compound 2.53 µM) | relative viability (DM3189 + Linsitinib; first compound 0.08 µM) | relative viability (DM3189 + Linsitinib; first compound 0.253 µM) | relative viability (DM3189 + Linsitinib; first compound 0.8 µM) | relative viability (DM3189 + Linsitinib; first compound 2.53 µM) | relative viability (DM3189 + Luminespib; first compound 0.08 µM) | relative viability (DM3189 + Luminespib; first compound 0.253 µM) | relative viability (DM3189 + Luminespib; first compound 0.8 µM) | relative viability (DM3189 + Luminespib; first compound 2.53 µM) |
| --- | --- | --- | --- | --- | --- | --- | --- | --- | --- | --- | --- | --- | --- | --- | --- | --- | --- | --- | --- | --- |
| 201T | 0.981 | 0.981 | 0.843 | 1.04 | 1.06 | 1.03 | 1 | 1.07 | 1.03 | 0.899 | 0.943 | 1.12 | 1.07 | 1.03 | 1.01 | 1.08 | 1.16 | 1.01 | 1.14 | 0.941 |
| A549 | 1.06 | 1.06 | 0.993 | 1.08 | 0.86 | 0.763 | 0.755 | 0.705 |  |  |  |  | 0.654 | 0.593 | 0.549 | 0.545 |  |  |  |  |
| A-427 | 1.19 | 1 | 0.93 | 0.947 | 0.904 | 0.854 | 0.811 | 0.95 | 0.941 | 0.791 | 0.801 | 0.816 | 1.1 | 1.03 | 1.11 | 1.33 | 1.13 | 0.89 | 0.806 | 0.745 |
| ABC-1 | 1.12 | 0.847 | 0.752 | 0.829 | 1.07 | 0.991 | 0.991 | 0.668 | 1.53 | 0.9 | 1.04 | 0.907 | 0.806 | 0.894 | 0.752 | 0.783 | 0.516 | 0.489 | 0.531 | 0.278 |
| BEN | 0.929 | 0.925 | 0.967 | 0.981 | 0.881 | 0.865 | 0.944 | 0.987 | 0.609 | 0.547 | 0.541 | 0.636 | 0.935 | 0.828 | 0.957 | 0.778 | 0.387 | 0.555 | 0.516 | 0.382 |
| ChaGo-K-1 | 1.01 | 0.997 | 0.971 | 1 | 1.03 | 1.1 | 0.97 | 1.09 | 0.872 | 0.771 | 0.703 | 0.746 |  |  |  |  | 0.643 | 0.52 | 0.492 | 0.676 |
| HCC-78 | 1.03 | 0.925 | 0.845 | 0.933 | 0.314 | 0.328 |  | 0.317 | 0.41 | 0.453 | 0.51 | 0.557 | 0.515 | 0.465 |  | 0.474 |  |  |  |  |
| HCC-366 | 1.05 | 0.905 | 0.925 | 0.989 | 0.475 | 0.574 | 0.372 | 0.771 | 0.363 | 0.285 | 0.191 | 0.41 | 0.641 | 0.538 | 0.55 | 0.649 |  |  |  |  |
